According to patent US8404664B2, “Phosphonated Rifamycins and uses thereof for the prevention and treatment of bone and joint infections” (Targanta Therapeutics, Inc., priority 2005, dated 2013):
In brackets after ≈: the same amount, converted by molar mass.

What was measured:
[1] = system: E. coli LBB925 (tolC mutant); assay: Antibacterial susceptibility (MIC), NCCLS broth microdilution; type: cell-based; settings: tolC mutant
[2] = system: S. aureus ATCC 13709 Novobiocin and Rifampicin resistant variant; assay: microbe, parasite or virus in culture; type: cell-based; settings: for Minimum inhibitory concentration, S. aureus ATCC 13709 variant: Novobiocin and Rifampicin resistant variant
Protocol: (§1) Susceptibility of S. aureus strains to the known antibiotics and synthesized compounds was determined by following the guidelines set by NCCLS (M26-A). Compounds were diluted two-fold serially in DMSO and transferred to cation-adjusted Mueller Hinton broth (CAMHB; Becton Dickinson). 50 μL of compounds diluted in CAMHB was mixed with 100 μL of bacteria diluted in CAMHB in 96-well microtiter plates. The final concentration of micro-organisms in the assay was 5×10^5 c.f.u. per mL and the final concentration of DMSO in the assay was 1.25%. Assays were set up in duplicate and incubated at 37° C. for 18 h. The lowest concentration of compound that inhibited visible growth was reported as the minimum inhibitory concentration (MIC).

[3] = Regeneration of drug from bone powder-bound prodrug; type: in vitro ADME; settings: for % Conversion of bone-bound prodrug to parent drug: 24 h incubation, 37° C.; for Impact of the medium on the rate of regeneration of parent drug (in words): serum compared to PBS
Protocol: Amounts of parent drug “regenerated” from the phosphonated prodrug were measured as follows. Washed bone powder-bound prodrugs from the above experiment were resuspended in 400 μL PBS+2% DMSO or in 400 μL 50% (v/v in PBS+2% DMSO) human or rat serum. The suspension was incubated overnight at 37° C., centrifuged at 13,000 rpm for 2 min and the supernatant was recovered. The amount of regenerated parent drug in the supernatant was determined by measurements using the microbiological assay that was previously described for the prodrugs themselves. The amount of prodrug was deduced from standard curves of known amounts of parent drug that were used as reference for each experiment.

S. aureus ATCC 13709 [4] = assay: Antibacterial susceptibility (MIC) in the presence of serum; type: cell-based
Protocol: as §1
Susceptibility testing experiments were also carried out in the presence of serum.
These experiments were carried out similar to the susceptibility testing with the following modifications. 75 μL of compounds diluted in CAMHB was mixed with 75 μL of bacteria diluted in 100% serum from any given source (commercial pooled mouse serum (MS) and human serum (HS), Equitech-Bio Inc.) or diluted in 8% purified human serum albumin (HSA) (Calbiochem). The final concentration of animal serum in the assay was 50% and the final concentration of purified human serum albumin in the assay was 4%; the concentrations of all other components were identical to those described for susceptibility testing.

S. aureus ATCC 13709 [5] = assay: Antibacterial susceptibility (MIC), NCCLS broth microdilution; type: cell-based; settings: for Antibacterial activity (in words, summary of Table 1): summary over the strains of Table 1
Protocol: as §1

[6] = system: S. aureus ATCC 43300 (Fluoroquinolone sensitive MRSA); assay: as above; type: cell-based
Protocol: as §1

S. aureus RN4220 = assay: as above; type: cell-based; settings: CAMHB, 37° C., 18 h
Protocol: as §1

[7] = system: S. aureus BK85 (Fluoroquinolone resistant MRSA); assay: as above; type: cell-based
Protocol: as §1

[8] = system: S. aureus ATCC 13709 Novobiocin resistant mutant (bone infection); assay: Prophylactic efficacy in rat model of S. aureus bone infection; type: in vivo
Protocol: Specifically, a spontaneous Novobiocin resistant mutant strain of S. aureus ATCC 13709 (a clinical osteomyelitis isolate), was grown overnight at 37° C. in brain heart infusion broth (BHIB). After 16 h of growth, cells were subcultured into fresh BHIB and incubated for 4 to 5 h at 37° C. The cells were washed twice with phosphate-buffered saline (PBS) and resuspended in BHIB supplemented with 10% (vol./vol.) fetal bovine serum at a density of approximately 10^10 colony forming units (CFU)/ml (based upon turbidimetry). The suspension was aliquoted and a portion was used to check the CFU count. The culture was stored frozen (−80° C.) and was used without subculture. For use as an inoculum the culture was thawed, diluted in PBS and kept in an ice bath until it was used.
Animals were infected as described by O'Reilly et al. (Antimicrobial Agents and Chemotherapy (1992), 36(12): 2693-97) to generate the bone infection. Female CD rats (age, 57 to 70 days; n=5/group; Charles River, St-Constant, Canada) were anaesthetized by isofluorane before and during the surgery. Following complete induction of anesthesia, the rat was placed ventral side up and hair was shaved from the surgical site. The skin over the leg was cleaned and disinfected (proviodine-ethanol 70%). A longitudinal incision below the knee joint was made in the sagital plane. The incision was made over the bone below the “knee joint” (tibia head or condyle) but not completely extending to the ankle. A high speed drill fitted with a 2 mm bulb bit was used to drill a hole into the medullar cavity of the tibia. Rats were injected intra-tibially with 0.05 ml 5% sodium morrhuate (sclerosing agent) and then with 0.05 ml of S. aureus suspension (ca. 2×10^7 CFU/rat). The hole was sealed by applying a small amount of dry dental cement which immediately absorbs fluids and adheres to the site. The wound was closed using 3 metal skin clips. Moxifloxacin (as a positive control) was injected once at 10 mg/kg intravenously 1 h postinfection in saline, while the Rifamycin derived prodrugs (prepared in 0.9% saline) were injected at the dose indicated in Table 3 as a single intravenous bolus at different time points prior to the infection.
Infected rats were sacrificed by CO2 asphyxiation 24 h postinfection to monitor the bacterial CFU count. Infected tibiae were removed, dissected free of soft tissue, and weighed. The bones were ground, resuspended in 5 ml 0.9% NaCl, serially diluted and processed for quantitative cultures. For compounds 50, 68 and 81, 1 ml of the 0.9% NaCl solution was added to 50 mg of charcoal before serial dilutions. Treatment efficacy was measured in terms of Log viable bacteria (Log CFU per gram of bone). […] The limit of detection is 2 Log CFU. […] Differences were considered significant when the P value was <0.05 when comparing treated infected animals to the untreated infected ones. The doses used, the amount of time separating the treatment from the time of infection and the treatment outcomes are shown in Table 3.

Row | Compound | Minimum inhibitory concentration, E. coli LBB925 [1] | Activity against the Rifampicin resistant variant of S. aureus ATCC13709 (in words) [2] | Minimum inhibitory concentration, S. aureus ATCC 13709 variant [2] | Regeneration of parent drug once bound to bone (in words) [3] | % Conversion of bone-bound prodrug to parent drug ([3]; 50% Rat Serum) | % Conversion of bone-bound prodrug to parent drug ([3]; PBS) | Impact of the medium on the rate of regeneration of parent drug (in words) [3] | Minimum inhibitory concentration, S. aureus ATCC 13709 + 50% Human Serum (S. aureus ATCC 13709 [4]) | Minimum inhibitory concentration, S. aureus ATCC 13709 + 50% Mouse Serum (S. aureus ATCC 13709 [4]) | Minimum inhibitory concentration, S. aureus ATCC 13709 + 50% Rat Serum (S. aureus ATCC 13709 [4]) | Minimum inhibitory concentration, S. aureus ATCC 13709 (S. aureus ATCC 13709 [5]) | Minimum inhibitory concentration, S. aureus ATCC 43300 [6] | Minimum inhibitory concentration, S. aureus RN4220 (S. aureus RN4220) | Minimum inhibitory concentration, S. aureus BK85 [7] | Prophylactic effect (in words) ([8]; rat bone infection, doses and times of Table 3, t-test p<0.05) | Measured bacterial titer ([8]; rat tibia 24 h postinfection, single dose 12 mg/kg parent drug equivalent, 1 day prior to infection) | Antibacterial activity (in words, summary of Table 1) (S. aureus ATCC 13709 [5]) | Impact of serum on the MICs (in words) (S. aureus ATCC 13709 [4])
1 | CO[C@H]1/C=C/O[C@@]2(C)Oc3c(C)c(O)c4c(=O)c(c5oc6cc(N7CCN(CC(C)C)CC7)cc(O)c6nc-5c4c3C2=O)NC(=O)/C(C)=C\C=C\[C@H](C)[C@H](OC(=O)COC(=O)CCC(=O)NC(P(=O)(O)O)P(=O)(O)O)[C@@H](C)[C@@H](O)[C@@H](C)[C@H](OC(C)=O)[C@@H]1C [Compound 84, 21-O-(2-((3-(bisphosphonomethyl)carbamoyl)propanoyloxy)acetyl)-1′,4-Didehydro-1-deoxy-1,4-dihydro-3′-hydroxy-5′-[4-(2-methylpropyl)-1-piperazinyl]-1-oxorifamycin VIII] | >128 µg/mL | complete lack of activity | >128 µg/mL | not able to regenerate | 0.12% | <lod | significant acceleration | 16 µg/mL | 16 µg/mL | 1 µg/mL | 1 µg/mL (≈ 0.786 µM) | 1 µg/mL (≈ 0.786 µM) | 1 µg/mL (≈ 0.786 µM) | 1 µg/mL (≈ 0.786 µM) |  |  |  | 
2 | CO[C@H]1/C=C/O[C@@]2(C)Oc3c(C)c(O)c4c(c3C2=O)C2=NC3(CCN(CC(C)C)CC3)NC2=C(NC(=O)/C(C)=C\C=C\[C@H](C)[C@H](OC(=O)CNC(=O)CC(P(=O)(O)O)P(=O)(O)O)[C@@H](C)[C@@H](O)[C@@H](C)[C@H](OC(C)=O)[C@@H]1C)C4=O [Compound 21, 21-O-(N-(3,3-Bisphosphonopropanoyl)-glycinoyl)-1′,4-didehydro-1-deoxy-1,4-dihydro-5′-(2-methylpropyl)-1-oxorifamycin XIV] | >128 µg/mL |  |  | not able to regenerate | 0.02% | <lod | not significantly impacted |  |  |  | 16 µg/mL (≈ 14.3 µM) | 16 µg/mL (≈ 14.3 µM) | 32 µg/mL (≈ 28.6 µM) | 16 µg/mL (≈ 14.3 µM) | lacks efficacy | 6.59 ± 0.90 Log CFU/g of bone |  | 
3 | CCN(CC)CC.CCN(CC)CC.CO[C@H]1/C=C/O[C@@]2(C)Oc3c(C)c(O)c4c(=O)c(c5oc6cc(N7CCN(CC(C)C)CC7)cc(O)c6nc-5c4c3C2=O)NC(=O)/C(C)=C\C=C\[C@H](C)[C@H](OC(=O)CCC(=O)NCCC(=O)NC(P(=O)(O)O)P(=O)(O)O)[C@@H](C)[C@@H](O)[C@@H](C)[C@H](OC(C)=O)[C@@H]1C [Compound 78, 21-O-(3-(2-((bisphosphonomethyl)carbamoyl)ethylcarbamoyl)propanoyl)-1′,4-Didehydro-1-deoxy-1,4-dihydro-3′-hydroxy-5′-[4-(2-methylpropyl)-1-piperazinyl]-1-oxorifamycin VIII] | >128 µg/mL | complete lack of activity | >128 µg/mL | not able to regenerate | 0.01% | <lod | significant acceleration | >128 µg/mL | >128 µg/mL | >128 µg/mL | 8 µg/mL | 8 µg/mL | 16 µg/mL | 16 µg/mL |  |  | near complete loss of activity | 
4 | CCN(CC)CC.CCN(CC)CC.CO[C@H]1/C=C/O[C@@]2(C)Oc3c(C)c(O)c4c(c3C2=O)C2=NC3(CCN(CC(C)C)CC3)NC2=C(NC(=O)/C(C)=C\C=C\[C@H](C)[C@H](OC(=O)CCC(=O)NCCCC(=O)NC(P(=O)(O)O)P(=O)(O)O)[C@@H](C)[C@@H](O)[C@@H](C)[C@H](OC(C)=O)[C@@H]1C)C4=O [Compound 45, 21-O-(3-(3-((bisphosphonomethyl)carbamoyl)propylcarbamoyl)propanoyl)-1′,4-didehydro-1-deoxy-1,4-dihydro-5′-(2-methylpropyl)-1-oxorifamycin XIV] | >128 µg/mL | complete lack of activity | >128 µg/mL | not able to regenerate | 0.002% | <lod | not significantly impacted | 64 µg/mL | 128 µg/mL |  | 32 µg/mL | 64 µg/mL | 64 µg/mL | 64 µg/mL |  |  | near complete loss of activity | no impact
